Measured values taken from patent publication US9867833B2, “Serine/threonine kinase inhibitors” (GENENTECH, INC., priority 2013, dated 2018).

Target: human ERK-2 (Mitogen Activated Kinase 1) (Homo sapiens (Human), UniProt P28482)
Assay: ERK-2 Enzymatic Assay
Type: biochemical
Details: human ERK-2 enzyme 5 nM, 25 μM ATP, S/T17 peptide substrate; isomer = configuration of CR2R3
Procedure, shortened: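 Recombinant human ERK-2 (aa 8-360, N-terminal 6-His, E. coli) with 3-fold serially diluted compound. Per-well rates from linear fits converted to percent of control; IC50 by four-parameter fit.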

Chain of human ERK-2 (Mitogen Activated Kinase 1) (P28482 8-360): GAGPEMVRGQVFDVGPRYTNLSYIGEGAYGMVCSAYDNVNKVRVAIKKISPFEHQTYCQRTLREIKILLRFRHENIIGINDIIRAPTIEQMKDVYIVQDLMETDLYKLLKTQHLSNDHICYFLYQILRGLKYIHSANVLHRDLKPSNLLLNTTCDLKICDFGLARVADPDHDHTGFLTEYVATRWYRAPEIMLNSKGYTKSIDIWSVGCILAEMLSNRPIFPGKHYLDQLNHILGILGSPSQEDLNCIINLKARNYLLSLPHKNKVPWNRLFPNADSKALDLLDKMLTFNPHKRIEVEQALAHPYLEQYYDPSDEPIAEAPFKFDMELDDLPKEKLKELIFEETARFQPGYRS

Row | IC50 [nM] | Structure (SMILES)
1 | < 0.02 | CN1C(=O)N(Cc2cccc(Cl)c2)c2nnc3cc(-c4ccnc(Nc5ccnn5C)n4)cc1n23 [Compound I-100, 3-(3-chlorobenzyl)-5-methyl-7-(2-((1-methyl-1H-pyrazol-5-yl)amino)pyrimidin-4-yl)-3H-1,2,2a^1,3,5-pentaazaacenaphthylen-4(5H)-one]
2 | < 0.02 | COc1cccc(CC2COc3cc(-c4ccnc(Nc5ccnn5C)n4)cc4nnc2n34)c1 (stereo not shown) [Compound I-81, 4-(3-(3-methoxybenzyl)-3,4-dihydro-5-oxa-1,2,2a^1-triazaacenaphthylen-7-yl)-N-(1-methyl-1H-pyrazol-5-yl)pyrimidin-2-amine]

The remaining lines, values behind:

Row | Structure (SMILES) | IC50 [nM]
3 | Cn1nccc1Nc1nccc(-c2cc3n4c(nnc4c2)[C@@H](Oc2ccc(F)cc2)CCO3)n1 [(S) I-66, 4-(9-(4-fluorophenoxy)-8,9-dihydro-7H-6-oxa-1,2,2a^1-triazabenzo[cd]azulen-4-yl)-N-(1-methyl-1H-pyrazol-5-yl)pyrimidin-2-amine] | 0.02
4 | CC(C)C[C@@H]1COc2cc(-c3ccnc(Nc4ccnn4C)n3)cc3nnc1n23 [(S) I-45, 4-(3-isobutyl-3,4-dihydro-5-oxa-1,2,2a^1-triazaacenaphthylen-7-yl)-N-(1-methyl-1H-pyrazol-5-yl)pyrimidin-2-amine] | 20.9
5 | Cn1nccc1Nc1cc(-c2cc3n4c(nnc4c2)[C@@H](Cn2cc(Cl)cn2)CCO3)ccn1 [(R) I-47, 4-(9-((4-chloro-1H-pyrazol-1-yl)methyl)-8,9-dihydro-7H-6-oxa-1,2,2a^1-triazabenzo[cd]azulen-4-yl)-N-(1-methyl-1H-pyrazol-5-yl)pyridin-2-amine] | < 0.02
6 | CN1C(=O)C[C@@H](CC(F)(F)F)c2nnc3cc(-c4ccnc(Nc5ccnn5C)n4)cc1n23 [(S) I-71, 6-methyl-4-(2-((1-methyl-1H-pyrazol-5-yl)amino)pyrimidin-4-yl)-9-(2,2,2-trifluoroethyl)-8,9-dihydro-1,2,2a^1,6-tetraazabenzo[cd]azulen-7(6H)-one] | 189
7 | Cn1nccc1Nc1nccc(-c2cc3n4c(nnc4c2)[C@@H](Oc2cncc(F)c2)CCO3)n1 [(S) I-91, 4-(9-((5-fluoropyridin-3-yl)oxy)-8,9-dihydro-7H-6-oxa-1,2,2a^1-triazabenzo[cd]azulen-4-yl)-N-(1-methyl-1H-pyrazol-5-yl)pyrimidin-2-amine] | 0.035
